The source of these data is US8946266B2, “Substituted triazole and imidazole derivatives as gamma secretase modulators” (Janssen Pharmaceuticals, Inc., priority 2009, dated 2015).

The test system of one data set is Aβtotal. Nature of the data set: In vivo efficacy, Method 2: brain soluble Aβtotal lowering 4 h after a single oral dose, ELISA (Table 4b). Details: species or system mouse. The conditions noted are these: dose 30 mg/kg oral dosing. In a few lines:
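Non-transgenic mice or rats, fasted overnight, received a single oral dose (30 mg/kg) in 20% Captisol or 20% hydroxypropyl β-cyclodextrin, or vehicle, and were sacrificed after 4 h. Right brain hemisphere was extracted in 0.4% DEA/50 mM NaCl, and soluble Aβtotal in the high-speed supernatant was measured by sandwich ELISA (JRF/rAβ/2 capture, biotinylated 4G8 detection, fluorogenic read-out).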

A further data set has as its system Aβ42. Nature of the data set: In vivo efficacy, Method 2: brain soluble Aβ42 lowering 4 h after a single oral dose, ELISA (Table 4b). Details: species or system mouse. The conditions noted are these: dose 30 mg/kg oral dosing. A digest of the protocol:
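Overnight-fasted non-transgenic rodents got a single oral dose of 30 mg/kg in 20% Captisol or 20% hydroxypropyl β-cyclodextrin and were killed 4 h later. Right-hemisphere soluble fraction (0.4% DEA/50 mM NaCl extract, neutralised) was assayed for Aβ42 by sandwich ELISA with fluorogenic read-out, compared with untreated animals.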
(An ELISA detects its analyte on a solid surface through an enzyme-linked reagent.)

The melting point is the temperature of the solid-liquid transition. With `COc1cc(-c2nc(-c3ccccc3)n(C)n2)ccc1-n1cnc(C)c1` [Compound 9], the melting point was found to be 115.8 °C.
Turning to `COc1cc(-c2nc(Nc3ccc(F)cc3C(F)(F)F)n(C)n2)ccc1-n1cnc(C)c1` [Compound 15], the “Aβtotal (% Ctrl) _Mean” value in the data set on Aβtotal is −5 % Ctrl. Also, the “Aβ42 (% Ctrl) _Mean” value in the data set on Aβ42 came out at 37 % Ctrl.
For `COc1cc(-c2nc(Nc3cccc(C(F)(F)F)c3)n(C)n2)ccc1-n1cnc(C)c1` [Compound 146] the same measures were 2 % Ctrl and 17 % Ctrl.
